Here are results for 13 compounds from PubChem BioAssay (NCI).

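Briefly, cells in 96-well plates were exposed to five compound concentrations for 48 h, and endpoints were estimated by linear interpolation. The concentration for 50% growth inhibition is given as GI50. Definition used: TGI = concentration required for complete inhibition of growth.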

What all share (assay): NCI anticancer screen, dose series, 48 h
In test [1] the test system is OVCAR-8 ovarian.
Test [2] relates to HOP-62 NSCLC.
The test system of test [3] is OVCAR-5 ovarian.
For test [4], the system named is SW-620 colon.
Test [5] deals with SF-295 CNS.
Test [6] concerns MALME-3M melanoma.
Test [7] concerns KM12 colon.
The subject of test [8] is SK-MEL-2 melanoma.

On to `O=S(=O)(NCCNc1nccc(-c2c(-c3ccc(F)cc3)nc3sccn23)n1)c1ccc(O)cc1`, for which the GI50 in test [1] is 1.98 µM; in test [2], 14.3 µM; in test [3] it was 11.8 µM; in test [4], 4.47 µM; in test [5] it was 10.4 µM; in test [6] it was 3.92 µM. In addition, the values for the GI50 in test [7] and in test [8] were 2.05 µM and 4.18 µM, respectively. Moreover, the TGI was 22.5 µM in test [1]; 85.6 µM in test [2]; greater than 100 µM in test [3]; 41.8 µM in test [4]; 34.6 µM in test [5]; 21.5 µM in test [6]. Moreover, the values for the TGI in test [7] and in test [8] were 14.2 µM and 17.3 µM, respectively.

For `O=C(/C=C(/C=C/c1cccc2[nH]ccc12)OB(F)F)/C=C/c1cccc2[nH]ccc12`, the GI50 was 0.347 µM in test [1]; 2.31 µM in test [2]; 1.42 µM in test [3]; 0.393 µM in test [4]; 1.76 µM in test [5]; 1.01 µM in test [6]. The GI50 is 0.949 µM in test [7] and 2.09 µM in test [8]. Further, the TGI in test [1] was greater than 100 µM; in test [2], 9.4 µM; in test [3] it was 3.59 µM; in test [4], 1.58 µM; in test [5] it was 4.61 µM; in test [6] it was 8.56 µM. Moreover, the TGI in test [7] was determined as 2.54 µM; in test [8], 5.63 µM.

Turning to `CC(C)n1cc(-c2ccc3c(c2)N(C)CC3)c2c(NS(=O)(=O)c3ccn(C)n3)ccnc21`, the GI50 in test [1] was 72.7 µM; in test [2], greater than 100 µM; in test [3] it was greater than 100 µM; in test [4] it was 69.7 µM; in test [5], 27.4 µM; in test [6], greater than 100 µM. The values for the GI50 in test [7] and in test [8] were 47.9 µM and 56.6 µM, respectively. In addition, the TGI in test [1], in test [2], in test [3], in test [4], in test [5] and in test [6] was greater than 100 µM each time. The TGI in test [7] and in test [8] was greater than 100 µM in each case.

As for `COc1ccc(C2=C(c3ccccc3)C(=O)N3CCCC3C2)cc1` (stereo not given), the GI50 is 9.42 µM in test [1]; 39.8 µM in test [2]; greater than 100 µM in test [3]; 1.24 µM in test [4]; 2.11 µM in test [5]; greater than 100 µM in test [6]. Further, the GI50 in test [7] is 3.01 µM; in test [8] it was 23.8 µM. Moreover, the TGI in test [1], in test [2], in test [3], in test [4], in test [5] and in test [6] was greater than 100 µM throughout. Also, the TGI in test [7] and in test [8] was greater than 100 µM throughout.

Turning to `COc1cc(/C=C2\CC3C4CCC5=CC(=O)CC[C@]5(C)C4CC[C@]3(C)C2=O)ccc1OCCN1CCCC1` (stereo not given in full), the GI50 in test [1] is 3.4 µM; in test [2] it was 2.33 µM; in test [3] it was 2.64 µM; in test [4], 3.09 µM; in test [5] it was 2.62 µM; in test [6] it was 0.645 µM. The GI50 in test [7] is 1.92 µM; in test [8] it was 4.21 µM. Also, the TGI in test [1] is 13.5 µM; in test [2], 6.11 µM; in test [3] it was 8.26 µM; in test [4], 11.5 µM; in test [5], 7.58 µM; in test [6], 1.93 µM. For the same compound, the TGI in test [7] worked out at 4.77 µM; in test [8] it was 14.8 µM.

In the case of `CC(C)[C@@]12C[C@@H](OC(=O)COC(=O)c3ccccc3)[C@@](C)(O1)[C@@H]1CC[C@@H](C)[C@H]1[C@@H]2OC(=O)/C=C/c1ccccc1`, the GI50 in test [1] is 0.134 µM; in test [2], greater than 100 µM; in test [3], greater than 100 µM; in test [4] it was greater than 100 µM; in test [5] it was greater than 100 µM; in test [6] it was greater than 100 µM. Further, the GI50 in test [7] and in test [8] was greater than 100 µM throughout. Also, the TGI in test [1], in test [2], in test [3], in test [4], in test [5] and in test [6] was greater than 100 µM in each case. Also, the TGI in test [7] and in test [8] was greater than 100 µM in each case.

Consider `Cc1cc(O)ccc1C1(c2ccc(O)cc2C)OC(=O)c2ccccc21`, for which the GI50 in test [1] is 23.3 µM; in test [2], 16.7 µM; in test [3], 16 µM; in test [4] it was 16.9 µM; in test [5] it was 16.2 µM; in test [6], 17.9 µM. Further, the GI50 in test [7] was 18.8 µM; in test [8], 18.4 µM. The TGI worked out at 46.5 µM in test [1]; 32.5 µM in test [2]; 32.9 µM in test [3]; 35.8 µM in test [4]; 31.7 µM in test [5]; 37.9 µM in test [6]. For the same compound, the TGI was 37.7 µM in test [7] and 33.8 µM in test [8].

In the case of `COc1ccc(-c2cc(=O)c3c(OC)c4ccoc4c(/C=C/C=O)c3o2)cc1`, the GI50 was 2.83 µM in test [1]; 2.98 µM in test [2]; 11.7 µM in test [3]; 2.3 µM in test [4]; 3.4 µM in test [5]; 3.79 µM in test [6]. In addition, the GI50 in test [7] was 12.3 µM; in test [8] it was 9.06 µM. Also, the TGI in test [1] was 27.3 µM; in test [2], 11.1 µM; in test [3], 46.8 µM; in test [4], 10.4 µM; in test [5], 26.5 µM; in test [6] it was 8.3 µM. Also, the TGI in test [7] is 25.7 µM; in test [8], 84.6 µM.

Take `CCOC(=O)C1=C(C)NC2SC(=O)/C(=C\c3cccc(Cl)c3)N2C1c1ccccc1` (stereo not given): the GI50 in test [1] was greater than 100 µM; in test [2], greater than 100 µM; in test [3], greater than 100 µM; in test [4], greater than 100 µM; in test [5], greater than 100 µM; in test [6], 28.3 µM. Besides, the GI50 in test [7] and in test [8] was greater than 100 µM each time. Also, the TGI in test [1], in test [2], in test [3], in test [4], in test [5] and in test [6] was greater than 100 µM in each case. The TGI in test [7] and in test [8] was greater than 100 µM each time.

As to `Cc1nc2ccc(-n3ncc(C(=O)c4cc5ccccc5[nH]4)c3N)cc2[nH]1`, the GI50 in test [1] is 7.08 µM; in test [2], 4.9 µM; in test [3], 16 µM; in test [4], 7.78 µM; in test [5] it was 4.87 µM; in test [6], 13.9 µM. Further, the GI50 in test [7] is 3.53 µM; in test [8], 25.9 µM. In addition, the TGI in test [1] was greater than 100 µM; in test [2], 51.6 µM; in test [3], greater than 100 µM; in test [4] it was greater than 100 µM; in test [5], 44.8 µM; in test [6], 83.1 µM. Moreover, the TGI is 43.1 µM in test [7] and 88.5 µM in test [8].

Regarding `O=C1/C(=C/c2ccc(Cl)cc2)CN(Cc2cn(CCCNc3ccnc4cc(Cl)ccc34)nn2)C/C1=C\c1ccc(Cl)cc1`, the GI50 in test [1] was 0.572 µM; in test [2], 1.47 µM; in test [3], 1.26 µM; in test [4] it was 0.316 µM; in test [5], 0.708 µM; in test [6], 1.71 µM. Moreover, the figures for the GI50 in test [7] and in test [8] were 0.291 µM and 2.03 µM, respectively. For the same compound, the TGI in test [1] amounted to 1.41 µM; in test [2], 2.94 µM; in test [3] it was 3.06 µM; in test [4] it was 1.37 µM; in test [5], 1.84 µM; in test [6], 3.28 µM. For the same compound, the TGI in test [7] was found to be 1.11 µM; in test [8], 3.71 µM.

On to `O=C(O)c1ccc(CSc2nc3ccccc3[nH]2)cc1`, for which the GI50 in test [1], in test [2], in test [3], in test [4], in test [5] and in test [6] was greater than 100 µM each time. The GI50 in test [7] and in test [8] was greater than 100 µM in each case. For the same compound, the TGI in test [1], in test [2], in test [3], in test [4], in test [5] and in test [6] was greater than 100 µM throughout. Besides, the TGI in test [7] and in test [8] was greater than 100 µM each time.

In the case of `O=C(CCN1CCCCC1)c1csc2ccccc12`, the TGI in test [1], in test [2], in test [3], in test [4], in test [5] and in test [6] was greater than 100 µM in each case. The TGI in test [7] and in test [8] was greater than 100 µM in each case.
